Data: ChEMBL document CHEMBL1149799, “Bioactive peroxides as potential therapeutic agents” (Eur J Med Chem, 2008)
≈ marks a conversion by molar mass, not a printed value.

Legend:
T98G = test: Cytotoxicity against human T98G cells; assay type: functional, cell-based
[1] = Cytotoxicity against human H116 cells; assay type: functional, cell-based
A549 = test: Cytotoxicity against human A549 cells; assay type: functional, cell-based; settings: Homo sapiens, A549
PSN1 = test: Cytotoxicity against human PSN1 cells; assay type: functional, cell-based
SK-BR-3 = test: Cytotoxicity against human SKBR3 cells; assay type: functional, cell-based
Candida albicans = test: Antifungal activity against Candida albicans; assay type: functional
PC-3 = test: Cytotoxicity against human PC3 cells; assay type: functional, cell-based
[2] = Cytotoxicity against human HERP3B cells; assay type: functional
[3] = system: Vesicular stomatitis virus; test: Antiviral activity against Vesicular stomatitis virus; assay type: functional, organism-based
HT-29 = test: Cytotoxicity against human HT29 cells; assay type: functional, cell-based; settings: Homo sapiens, HT-29
P388 = test: Cytotoxicity against mouse P388 cells; assay type: functional, cell-based; settings: Mus musculus, P388
Human alphaherpesvirus 1 = test: Antiviral activity against herpes simplex virus type-1; assay type: functional, organism-based

SMILES: C[C@@H]1C[C@@H]([C@H](O)CC2CC(=O)NC(=O)C2)C(=O)[C@@H](C)C1 [CYCLOHEXIMIDE]
- IC50 (T98G): 2.5 µg/mL (≈ 8.89 µM)
- IC50 [1]: 0.1 µg/mL (≈ 0.355 µM)
- IC50 (A549): 0.1 µg/mL (≈ 0.355 µM)
- IC50 (PSN1): 0.01 µg/mL (≈ 0.0355 µM)
- IC50 (SK-BR-3): 0.05 µg/mL (≈ 0.178 µM)

SMILES: CC(CCCCCC/C=C\C=C\c1ccccc1)CC1(C)CC(C)(CC(=O)O)OO1 (single isomer, unassigned)
- MIC (Candida albicans): 1.6 µg/mL (≈ 3.86 µM)

SMILES: CCOc1ccc(OOc2ccc(OCC)c3cc4c(cc23)[C@]2(C)CCC(=O)c3coc(c32)C4=O)c2cc3c(cc12)[C@@]1(C)CCC(=O)c2coc(c21)C3=O
- Activity (PC-3): 35
- Activity [2]: 5

SMILES: C[C@H](C(=O)O)[C@@H]1CC[C@](C)(CC[C@]2(C)[C@H](C)CC[C@@]3(C)C(C)(C)CCC[C@]32O)OO1 [MYCAPEROXIDE A]
- IC50 [3]: 0.25 µg/mL (≈ 0.589 µM)
- IC50 (HT-29): 0.5 µg/mL (≈ 1.18 µM)
- IC50 (P388): 0.5 µg/mL (≈ 1.18 µM)
- IC50 (A549): 0.5 µg/mL (≈ 1.18 µM)
- IC50 (Human alphaherpesvirus 1): 0.25 µg/mL (≈ 0.589 µM)
